# Laboratory results taken from PubChem BioAssay (NCI).
#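 Grown in 96-well plates, cells were treated for 48 hours with each compound at five concentrations. Insufficient inhibition: endpoint recorded as highest concentration tested. GI50 is the concentration that inhibits growth by half. TGI: total growth inhibition.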
# Key:
# Assay in all cases: NCI-60 cell line screen, 48 h
# [1] = system: NCI-H23 lung
# [2] = system: HCT-116 colon
# [3] = system: OVCAR-8 ovarian
# [4] = system: TK-10 renal
# [5] = system: SK-MEL-2 melanoma
# [6] = system: KM12 colon
# [7] = system: SF-268 CNS
# [8] = system: CAKI-1 renal
# [9] = system: SN12C renal
# [10] = system: 786-0 renal
# [11] = system: BT-549 breast
# [12] = system: U251 CNS
# [13] = system: UACC-62 melanoma
# [14] = system: HOP-62 NSCLC
# [15] = system: MDA-MB-231 breast
# [16] = system: RXF 393 renal
# [17] = system: EKVX NSCLC
# [18] = system: NCI-H226 lung
# [19] = system: OVCAR-5 ovarian
# [20] = system: SK-OV-3 ovarian
# [21] = system: SR leukemia
# [22] = system: NCI-H522 lung
# [23] = system: M14 melanoma
# [24] = system: HOP-92 NSCLC
# [25] = system: UACC-257 melanoma
# [26] = system: SF-295 CNS
# [27] = system: RPMI-8226 leukemia
# [28] = system: ACHN renal
# [29] = system: MOLT-4 leukemia
# [30] = system: SNB-19 CNS
# [31] = system: UO-31 renal
# [32] = system: SNB-75 CNS
# [33] = system: OVCAR-4 ovarian
# [34] = system: DU-145 prostate
# [35] = system: COLO 205 colon
# [36] = system: MDA-MB-468 breast
# [37] = system: SW-620 colon
# [38] = system: HCT-15 colon
# [39] = system: NCI-H460 lung
# [40] = system: SK-MEL-28 melanoma
# [41] = system: MALME-3M melanoma
# [42] = system: HT29 colon
# [43] = system: PC-3 prostate
# [44] = system: HL-60(TB) leukemia
# [45] = system: A549 NSCLC
# [46] = system: HCC-2998 colon
# [47] = system: CCRF-CEM leukemia
# [48] = system: HS 578T breast
# [49] = system: T-47D breast
# [50] = system: SK-MEL-5 melanoma
# [51] = system: A498 renal
# [52] = system: MCF7 breast
# [53] = system: IGROV1 ovarian
# [54] = system: K-562 leukemia
# [55] = system: SF-539 CNS
# [56] = system: OVCAR-3 ovarian
# [57] = system: LOX IMVI melanoma
# [58] = system: MDA-MB-435
smiles,measurement,setting,value
Oc1ccc(/C=C2\CCCc3cc4ccc(O)cc4[o+]c32)c(O)c1,GI50,[1],11.7 µM
same,TGI,[1],> 100 µM
same,GI50,[2],3.82 µM
same,TGI,[2],> 100 µM
same,GI50,[3],6.91 µM
same,TGI,[3],> 100 µM
same,GI50,[4],47.2 µM
same,TGI,[4],> 100 µM
same,GI50,[5],12.2 µM
same,TGI,[5],58.6 µM
same,GI50,[6],3.3 µM
same,TGI,[6],13.7 µM
same,GI50,[7],6.81 µM
same,TGI,[7],> 100 µM
same,GI50,[8],5.25 µM
same,TGI,[8],> 100 µM
same,GI50,[9],29.9 µM
same,TGI,[9],> 100 µM
same,GI50,[10],8.21 µM
same,TGI,[10],> 100 µM
same,GI50,[11],5.75 µM
same,TGI,[11],> 100 µM
same,GI50,[12],4.16 µM
same,TGI,[12],41.3 µM
same,GI50,[13],5.02 µM
same,TGI,[13],26 µM
same,GI50,[14],44.2 µM
same,TGI,[14],> 100 µM
same,GI50,[15],3.99 µM
same,TGI,[15],33.1 µM
same,GI50,[16],2.26 µM
same,TGI,[16],10.8 µM
same,GI50,[17],8.82 µM
same,TGI,[17],> 100 µM
same,GI50,[18],26.6 µM
same,TGI,[18],> 100 µM
same,GI50,[19],53.1 µM
same,TGI,[19],> 100 µM
same,GI50,[20],27.2 µM
same,TGI,[20],> 100 µM
same,GI50,[21],3.09 µM
same,TGI,[21],> 100 µM
same,GI50,[22],2.51 µM
same,TGI,[22],11.2 µM
same,GI50,[23],6.7 µM
same,TGI,[23],> 100 µM
same,GI50,[24],6.43 µM
same,TGI,[24],> 100 µM
same,GI50,[25],15.3 µM
same,TGI,[25],> 100 µM
same,GI50,[26],19.7 µM
same,TGI,[26],> 100 µM
same,GI50,[27],4.93 µM
same,TGI,[27],> 100 µM
same,GI50,[28],6.1 µM
same,TGI,[28],> 100 µM
same,GI50,[29],3.06 µM
same,TGI,[29],> 100 µM
same,GI50,[30],24.9 µM
same,TGI,[30],> 100 µM
same,GI50,[31],7.23 µM
same,TGI,[31],59.9 µM
same,GI50,[32],2.88 µM
same,TGI,[32],65.6 µM
same,GI50,[33],16.5 µM
same,TGI,[33],> 100 µM
same,GI50,[34],22.2 µM
same,TGI,[34],> 100 µM
same,GI50,[35],15.2 µM
same,TGI,[35],44.5 µM
same,GI50,[36],1.99 µM
same,TGI,[36],6.46 µM
same,GI50,[37],3.87 µM
same,TGI,[37],69.2 µM
same,GI50,[38],3.27 µM
same,TGI,[38],11.2 µM
same,GI50,[39],5.14 µM
same,TGI,[39],42.2 µM
same,GI50,[40],12.3 µM
same,TGI,[40],52.4 µM
same,GI50,[41],4.77 µM
same,TGI,[41],40.3 µM
same,GI50,[42],17.9 µM
same,TGI,[42],46.6 µM
same,GI50,[43],4.09 µM
same,TGI,[43],> 100 µM
same,GI50,[44],2.65 µM
same,TGI,[44],57.3 µM
same,GI50,[45],44.2 µM
same,TGI,[45],> 100 µM
same,GI50,[46],6.29 µM
same,TGI,[46],20.4 µM
same,GI50,[47],3.56 µM
same,TGI,[47],> 100 µM
same,GI50,[48],2.68 µM
same,TGI,[48],> 100 µM
same,GI50,[49],5.23 µM
same,TGI,[49],> 100 µM
same,GI50,[50],5.74 µM
same,TGI,[50],19.9 µM
same,GI50,[51],> 100 µM
same,TGI,[51],> 100 µM
same,GI50,[52],2.68 µM
same,TGI,[52],70.8 µM
same,GI50,[53],18.9 µM
same,TGI,[53],78.1 µM
same,GI50,[54],4.03 µM
same,TGI,[54],> 100 µM
same,GI50,[55],7.04 µM
same,TGI,[55],42 µM
same,GI50,[56],3.39 µM
same,TGI,[56],14.7 µM
same,GI50,[57],2.95 µM
same,TGI,[57],12.5 µM
CC(C)Sc1nc(NCCc2c[nH]c3ccccc23)c(C#N)c(-c2ccccc2)n1,GI50,[1],15.5 µM
same,TGI,[1],30.7 µM
same,GI50,[2],5.17 µM
same,TGI,[2],18.5 µM
same,GI50,[3],18.2 µM
same,TGI,[3],51.4 µM
same,GI50,[4],22.8 µM
same,TGI,[4],46.8 µM
same,GI50,[6],5.54 µM
same,TGI,[6],22.1 µM
same,GI50,[7],18.4 µM
same,TGI,[7],48.3 µM
same,GI50,[8],11.2 µM
same,TGI,[8],26 µM
same,GI50,[9],13.3 µM
same,TGI,[9],26.2 µM
same,GI50,[10],12.6 µM
same,TGI,[10],30.5 µM
same,GI50,[11],13.2 µM
same,TGI,[11],26.6 µM
same,GI50,[12],11.6 µM
same,TGI,[12],24.4 µM
same,GI50,[13],14.4 µM
same,TGI,[13],27.6 µM
same,GI50,[14],13.5 µM
same,TGI,[14],27.8 µM
same,GI50,[15],11.8 µM
same,TGI,[15],27.3 µM
same,GI50,[16],6.66 µM
same,TGI,[16],20.3 µM
same,GI50,[17],12.1 µM
same,TGI,[17],31.1 µM
same,GI50,[18],13 µM
same,TGI,[18],27.3 µM
same,GI50,[19],12.1 µM
same,TGI,[19],25.2 µM
same,GI50,[20],17.5 µM
same,TGI,[20],45.4 µM
same,GI50,[21],5.25 µM
same,TGI,[21],> 100 µM
same,GI50,[22],15.3 µM
same,TGI,[22],30.9 µM
same,GI50,[23],13.8 µM
same,TGI,[23],28.4 µM
same,GI50,[24],14.7 µM
same,TGI,[24],33.7 µM
same,GI50,[25],18.8 µM
same,TGI,[25],41.8 µM
same,GI50,[26],13.7 µM
same,TGI,[26],29.6 µM
same,GI50,[27],11.4 µM
same,TGI,[27],> 100 µM
same,GI50,[28],14.3 µM
same,TGI,[28],28 µM
same,GI50,[29],9.21 µM
same,TGI,[29],> 100 µM
same,GI50,[30],15.8 µM
same,TGI,[30],33.3 µM
same,GI50,[31],14.3 µM
same,TGI,[31],31.2 µM
same,GI50,[58],14.4 µM
same,TGI,[58],28.2 µM
same,GI50,[32],17.8 µM
same,TGI,[32],56.9 µM
same,GI50,[33],13.4 µM
same,TGI,[33],36.4 µM
same,GI50,[34],14.9 µM
same,TGI,[34],34.8 µM
same,GI50,[35],8.37 µM
same,TGI,[35],21.2 µM
same,GI50,[36],3.12 µM
same,TGI,[36],9.98 µM
same,GI50,[37],10.3 µM
same,TGI,[37],26 µM
same,GI50,[38],5.38 µM
same,TGI,[38],18.2 µM
same,GI50,[39],8.41 µM
same,TGI,[39],27.9 µM
same,GI50,[40],14.4 µM
same,TGI,[40],28.6 µM
same,GI50,[41],16.5 µM
same,TGI,[41],30.7 µM
same,GI50,[42],5.57 µM
same,TGI,[42],18.9 µM
same,GI50,[43],7.08 µM
same,TGI,[43],43.8 µM
same,GI50,[44],13.5 µM
same,TGI,[44],> 100 µM
same,GI50,[45],18.4 µM
same,TGI,[45],42.5 µM
same,GI50,[46],10 µM
same,TGI,[46],22.6 µM
same,GI50,[47],9.41 µM
same,TGI,[47],> 100 µM
same,GI50,[48],14.8 µM
same,TGI,[48],56.1 µM
same,GI50,[49],6.54 µM
same,TGI,[49],20.8 µM
same,GI50,[50],11.4 µM
same,TGI,[50],23.6 µM
same,GI50,[51],15.1 µM
same,TGI,[51],29.5 µM
same,GI50,[52],11.3 µM
same,TGI,[52],25.4 µM
same,GI50,[53],16.6 µM
same,TGI,[53],32 µM
same,GI50,[54],4.85 µM
same,TGI,[54],> 100 µM
same,GI50,[55],13 µM
same,TGI,[55],27 µM
same,GI50,[56],15.8 µM
same,TGI,[56],30.8 µM
same,GI50,[57],4.57 µM
same,TGI,[57],15.3 µM
